One assay has as its target Delta-type opioid receptor (Homo sapiens, UniProt P41143). Type of assay: cell membranes, Membrane. The note with it: hek293. Also: in other assays of this panel Not Active means under 50% inhibition at 10 µM.
C-C chemokine receptor type 2, sequence (P41597 whole entry): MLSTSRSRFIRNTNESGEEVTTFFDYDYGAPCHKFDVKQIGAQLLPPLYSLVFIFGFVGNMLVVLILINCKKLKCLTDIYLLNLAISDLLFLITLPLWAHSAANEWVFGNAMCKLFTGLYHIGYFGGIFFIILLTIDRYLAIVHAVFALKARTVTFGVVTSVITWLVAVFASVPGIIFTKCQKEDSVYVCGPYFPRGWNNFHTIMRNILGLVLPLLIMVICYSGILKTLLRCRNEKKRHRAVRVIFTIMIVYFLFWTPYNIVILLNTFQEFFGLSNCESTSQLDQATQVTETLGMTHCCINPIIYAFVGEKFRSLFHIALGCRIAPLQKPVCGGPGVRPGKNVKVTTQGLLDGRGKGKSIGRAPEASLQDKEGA
Delta-type opioid receptor, sequence (P41143 whole entry): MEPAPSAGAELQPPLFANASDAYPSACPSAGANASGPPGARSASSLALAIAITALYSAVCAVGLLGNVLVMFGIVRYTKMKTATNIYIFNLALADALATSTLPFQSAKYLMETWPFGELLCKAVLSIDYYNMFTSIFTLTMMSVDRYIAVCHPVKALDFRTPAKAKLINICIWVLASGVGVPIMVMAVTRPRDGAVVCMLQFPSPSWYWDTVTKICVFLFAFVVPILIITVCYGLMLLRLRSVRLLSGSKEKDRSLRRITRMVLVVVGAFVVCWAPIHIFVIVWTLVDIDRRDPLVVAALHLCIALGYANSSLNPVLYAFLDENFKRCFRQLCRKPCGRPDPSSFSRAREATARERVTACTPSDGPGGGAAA
Turning to `CC(C)c1cccc(C(C)C)c1O` [PROPOFOL], the IC50 result was “Not Active”.

`C[C@@H]1O[C@@H](O[C@@H]2C=C3CC[C@@H]4[C@H](CC[C@]5(C)[C@@H](c6ccc(=O)oc6)CC[C@]45O)[C@@]3(C)CC2)[C@H](O)[C@H](O)[C@H]1O` [PROSCILLARIDIN]: the IC50 entry is on record as “Not Active”.

As for `Oc1cccc(O)c1O` [PYROGALLOL], the IC50 result is on record as “Not Active”.

Take AURANOFIN: the IC50 result is on record as “Not Active” and the Ki result is “Not Active”.

Turning to GADOPENTETATE DIMEGLUMINE, the IC50 result is recorded as “Not Active” and the Ki entry was “Not Active”.

In the case of GENTAMICIN, the IC50 result is on record as “Not Active” and the Ki result is “Not Active”.

On to GRAMICIDIN, for which the IC50 entry was “Not Active” and the Ki result is on record as “Not Active”.

NYSTATIN: the IC50 result is “Not Active” and the Ki entry is on record as “Not Active”.

Another assay concerns the target C-C chemokine receptor type 2 (Homo sapiens, UniProt P41597). It counts as cell membranes, Membrane. As to conditions: cho-k1. Also: in other assays of this panel Not Active means under 50% inhibition at 10 µM.
For `CC(C)c1cccc(C(C)C)c1O` [PROPOFOL], the IC50 result is “Not Active”.

Regarding `C[C@@H]1O[C@@H](O[C@@H]2C=C3CC[C@@H]4[C@H](CC[C@]5(C)[C@@H](c6ccc(=O)oc6)CC[C@]45O)[C@@]3(C)CC2)[C@H](O)[C@H](O)[C@H]1O` [PROSCILLARIDIN], the IC50 result is reported as “Not Active”.

For `Oc1cccc(O)c1O` [PYROGALLOL], the IC50 result is reported as “Not Active”.

Take AURANOFIN: the IC50 result is listed as “Not Active” and the Ki entry was “Not Active”.

With GADOPENTETATE DIMEGLUMINE, the IC50 result is reported as “Not Active” and the Ki result is on record as “Not Active”.

Consider GENTAMICIN, for which the IC50 entry is “Not Active” and the Ki result is reported as “Not Active”.

On to GRAMICIDIN, for which the IC50 result is reported as “Not Active” and the Ki entry is reported as “Not Active”.

Consider NYSTATIN, for which the IC50 entry is “Not Active” and the Ki entry is listed as “Not Active”.

For the next assay, the target named is T1, Leukotriene C4 synthase (Cavia porcellus, UniProt A6XA80).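 Also: enzyme inhibition assay of leukotriene C4 synthase, using LTA4 as the substrate; in other assays of this panel Not Active means under 50% inhibition at 10 µM.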
T1 sequence (A6XA80 whole entry): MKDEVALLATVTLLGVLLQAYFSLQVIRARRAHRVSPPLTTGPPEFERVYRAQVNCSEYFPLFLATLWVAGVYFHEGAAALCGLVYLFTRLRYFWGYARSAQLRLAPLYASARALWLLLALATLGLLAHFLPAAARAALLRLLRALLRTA
It counts as tissue-based, Lung.
Settings: not given
Turning to `CC(C)c1cccc(C(C)C)c1O` [PROPOFOL], the IC50 entry is listed as “Not Active”.

Consider `C[C@@H]1O[C@@H](O[C@@H]2C=C3CC[C@@H]4[C@H](CC[C@]5(C)[C@@H](c6ccc(=O)oc6)CC[C@]45O)[C@@]3(C)CC2)[C@H](O)[C@H](O)[C@H]1O` [PROSCILLARIDIN], for which the IC50 entry was “Not Active”.

As for `Oc1cccc(O)c1O` [PYROGALLOL], the IC50 entry is “Not Active”.

Turning to AURANOFIN, the IC50 result is recorded as “Not Active” and the Ki entry is “Not Active”.

For the compound GADOPENTETATE DIMEGLUMINE, the IC50 result is “Not Active” and the Ki entry is “Not Active”.

Regarding GENTAMICIN, the IC50 entry was “Not Active” and the Ki result is on record as “Not Active”.

Take GRAMICIDIN: the IC50 entry is listed as “Not Active” and the Ki entry is “Not Active”.

In the case of NYSTATIN, the IC50 result is recorded as “Not Active” and the Ki entry is on record as “Not Active”.

The target in a further assay is C-C chemokine receptor type 5 (Homo sapiens, UniProt P51681). Type of assay: cell membranes, Membrane. As to conditions: hek293. Also: in other assays of this panel Not Active means under 50% inhibition at 10 µM.
C-C chemokine receptor type 5, sequence (P51681 whole entry): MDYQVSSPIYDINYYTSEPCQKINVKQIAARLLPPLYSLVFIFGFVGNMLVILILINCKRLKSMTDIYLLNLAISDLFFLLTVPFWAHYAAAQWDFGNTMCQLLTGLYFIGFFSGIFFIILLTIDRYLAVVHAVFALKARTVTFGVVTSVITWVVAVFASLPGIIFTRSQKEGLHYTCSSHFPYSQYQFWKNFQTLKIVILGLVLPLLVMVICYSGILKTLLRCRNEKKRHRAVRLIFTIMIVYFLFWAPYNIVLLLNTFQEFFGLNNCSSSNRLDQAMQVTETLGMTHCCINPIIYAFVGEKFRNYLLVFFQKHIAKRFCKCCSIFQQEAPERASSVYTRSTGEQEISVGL
Regarding `CC(C)c1cccc(C(C)C)c1O` [PROPOFOL], the IC50 result is on record as “Not Active”.

Turning to `C[C@@H]1O[C@@H](O[C@@H]2C=C3CC[C@@H]4[C@H](CC[C@]5(C)[C@@H](c6ccc(=O)oc6)CC[C@]45O)[C@@]3(C)CC2)[C@H](O)[C@H](O)[C@H]1O` [PROSCILLARIDIN], the IC50 result is recorded as “Not Active”.

For the compound `Oc1cccc(O)c1O` [PYROGALLOL], the IC50 result is recorded as “Not Active”.

AURANOFIN: the IC50 result is on record as “Not Active” and the Ki entry was “Not Active”.

With GADOPENTETATE DIMEGLUMINE, the IC50 entry is “Not Active” and the Ki result is “Not Active”.

Consider GENTAMICIN, for which the IC50 entry is on record as “Not Active” and the Ki entry is “Not Active”.

On to GRAMICIDIN, for which the IC50 result was “Not Active” and the Ki entry is “Not Active”.

Turning to NYSTATIN, the IC50 result was “Not Active” and the Ki result is on record as “Not Active”.

The next assay deals with Beta-1 adrenergic receptor (Homo sapiens, UniProt P08588). As to the kind of experiment: DRUGMATRIX: Adrenergic beta1 radioligand binding (ligand: [125I] Cyanopindolol). It counts as cell membranes, CHO-K1, Membrane. The note with it: cho-k1; Not Active = under 50% inhibition at 10 µM.
Beta-1 adrenergic receptor, sequence (P08588 whole entry): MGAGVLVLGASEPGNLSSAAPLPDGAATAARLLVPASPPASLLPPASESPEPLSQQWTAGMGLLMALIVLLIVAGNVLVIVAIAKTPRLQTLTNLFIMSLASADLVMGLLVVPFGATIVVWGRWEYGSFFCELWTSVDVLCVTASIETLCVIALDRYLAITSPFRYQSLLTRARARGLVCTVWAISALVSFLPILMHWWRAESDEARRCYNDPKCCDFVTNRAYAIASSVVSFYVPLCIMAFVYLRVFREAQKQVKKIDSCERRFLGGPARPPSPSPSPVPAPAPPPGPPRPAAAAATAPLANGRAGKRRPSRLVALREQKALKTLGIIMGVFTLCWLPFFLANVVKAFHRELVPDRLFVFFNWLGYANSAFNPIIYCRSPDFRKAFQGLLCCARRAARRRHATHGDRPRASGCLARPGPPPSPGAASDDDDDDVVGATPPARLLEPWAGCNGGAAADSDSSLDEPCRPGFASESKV
With `CC(C)c1cccc(C(C)C)c1O` [PROPOFOL], the IC50 entry is “Not Active”.

For `C[C@@H]1O[C@@H](O[C@@H]2C=C3CC[C@@H]4[C@H](CC[C@]5(C)[C@@H](c6ccc(=O)oc6)CC[C@]45O)[C@@]3(C)CC2)[C@H](O)[C@H](O)[C@H]1O` [PROSCILLARIDIN], the IC50 result is “Not Active”.

For the compound `Oc1cccc(O)c1O` [PYROGALLOL], the IC50 result is “Not Active”.

For AURANOFIN, the IC50 result was “Not Active” and the Ki result is recorded as “Not Active”.

Turning to GADOPENTETATE DIMEGLUMINE, the IC50 entry is on record as “Not Active” and the Ki entry was “Not Active”.

GENTAMICIN: the IC50 entry is recorded as “Not Active” and the Ki entry is recorded as “Not Active”.

As for GRAMICIDIN, the IC50 result is “Not Active” and the Ki entry was “Not Active”.

Take NYSTATIN: the IC50 entry was “Not Active” and the Ki entry was “Not Active”.

Test system in a further assay: not listed separately
Put plainly: DRUGMATRIX: Tumor Necrosis Factor (TNF), Non-Selective radioligand binding (ligand: [125I] TNF-alpha). Type of assay: cell membranes, Membrane. As to conditions: u-937; Not Active = under 50% inhibition at 10 µM.
With `CC(C)c1cccc(C(C)C)c1O` [PROPOFOL], the IC50 entry is “Not Active” and the Ki result is “Not Active”.

In the case of `C[C@@H]1O[C@@H](O[C@@H]2C=C3CC[C@@H]4[C@H](CC[C@]5(C)[C@@H](c6ccc(=O)oc6)CC[C@]45O)[C@@]3(C)CC2)[C@H](O)[C@H](O)[C@H]1O` [PROSCILLARIDIN], the IC50 entry was “Not Active” and the Ki result is listed as “Not Active”.

As to `Oc1cccc(O)c1O` [PYROGALLOL], the IC50 entry is on record as “Not Active” and the Ki entry was “Not Active”.

Turning to AURANOFIN, the IC50 entry was “Not Active” and the Ki entry was “Not Active”.

As for GADOPENTETATE DIMEGLUMINE, the IC50 result was “Not Active” and the Ki entry is on record as “Not Active”.

Consider GENTAMICIN, for which the IC50 result is “Not Active” and the Ki entry was “Not Active”.

As for GRAMICIDIN, the IC50 entry is on record as “Not Active” and the Ki result is reported as “Not Active”.

Turning to NYSTATIN, the IC50 entry is “Not Active” and the Ki entry is “Not Active”.

In the next assay the target is Nitric oxide synthase 1 (Rattus norvegicus, UniProt P29476). It counts as tissue-based, Cerebellum. Also: in other assays of this panel Not Active means under 50% inhibition at 10 µM.
Nitric oxide synthase 1, sequence (P29476 whole entry): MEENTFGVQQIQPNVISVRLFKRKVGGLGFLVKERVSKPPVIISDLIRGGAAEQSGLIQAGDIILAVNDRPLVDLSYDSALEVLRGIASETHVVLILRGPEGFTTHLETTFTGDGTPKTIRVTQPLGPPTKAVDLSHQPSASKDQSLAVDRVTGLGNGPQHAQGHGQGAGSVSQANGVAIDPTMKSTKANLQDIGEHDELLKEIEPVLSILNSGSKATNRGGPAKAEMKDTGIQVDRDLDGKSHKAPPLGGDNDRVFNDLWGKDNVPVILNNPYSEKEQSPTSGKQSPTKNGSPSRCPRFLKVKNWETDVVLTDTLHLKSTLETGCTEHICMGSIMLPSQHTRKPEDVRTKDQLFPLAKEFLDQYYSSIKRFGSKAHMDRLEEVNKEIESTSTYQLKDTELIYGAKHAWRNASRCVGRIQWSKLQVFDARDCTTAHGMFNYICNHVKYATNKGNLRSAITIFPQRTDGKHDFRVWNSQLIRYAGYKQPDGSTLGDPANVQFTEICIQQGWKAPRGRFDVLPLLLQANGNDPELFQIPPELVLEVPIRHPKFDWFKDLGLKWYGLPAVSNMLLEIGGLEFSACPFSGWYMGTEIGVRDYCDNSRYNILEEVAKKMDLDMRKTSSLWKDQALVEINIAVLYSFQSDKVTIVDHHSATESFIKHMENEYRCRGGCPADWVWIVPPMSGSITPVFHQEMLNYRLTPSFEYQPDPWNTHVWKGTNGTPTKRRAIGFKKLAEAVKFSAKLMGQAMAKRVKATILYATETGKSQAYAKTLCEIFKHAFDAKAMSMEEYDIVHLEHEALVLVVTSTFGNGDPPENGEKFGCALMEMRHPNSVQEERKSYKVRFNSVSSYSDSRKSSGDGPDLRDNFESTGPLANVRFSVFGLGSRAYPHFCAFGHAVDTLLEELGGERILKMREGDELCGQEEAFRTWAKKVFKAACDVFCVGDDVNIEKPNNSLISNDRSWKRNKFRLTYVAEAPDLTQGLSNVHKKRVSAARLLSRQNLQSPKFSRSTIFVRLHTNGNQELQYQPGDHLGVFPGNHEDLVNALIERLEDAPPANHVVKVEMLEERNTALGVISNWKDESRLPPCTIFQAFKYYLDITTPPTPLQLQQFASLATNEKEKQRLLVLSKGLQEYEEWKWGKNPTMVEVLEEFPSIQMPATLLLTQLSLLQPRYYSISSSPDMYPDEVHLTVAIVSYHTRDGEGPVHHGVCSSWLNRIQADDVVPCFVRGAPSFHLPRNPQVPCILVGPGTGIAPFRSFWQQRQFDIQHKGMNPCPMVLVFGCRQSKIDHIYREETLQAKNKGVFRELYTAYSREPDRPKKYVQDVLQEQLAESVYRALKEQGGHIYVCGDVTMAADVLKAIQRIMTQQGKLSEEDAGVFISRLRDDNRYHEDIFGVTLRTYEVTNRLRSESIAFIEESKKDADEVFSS
Settings: not given
`CC(C)c1cccc(C(C)C)c1O` [PROPOFOL]: the IC50 result is “Not Active”.

Consider `C[C@@H]1O[C@@H](O[C@@H]2C=C3CC[C@@H]4[C@H](CC[C@]5(C)[C@@H](c6ccc(=O)oc6)CC[C@]45O)[C@@]3(C)CC2)[C@H](O)[C@H](O)[C@H]1O` [PROSCILLARIDIN], for which the IC50 result is “Not Active”.

As to `Oc1cccc(O)c1O` [PYROGALLOL], the IC50 result was “Not Active”.

As to AURANOFIN, the IC50 result is reported as “Not Active” and the Ki result is recorded as “Not Active”.

Turning to GADOPENTETATE DIMEGLUMINE, the IC50 result was “Not Active” and the Ki entry is “Not Active”.

Turning to GENTAMICIN, the IC50 entry is on record as “Not Active” and the Ki entry is reported as “Not Active”.

As for GRAMICIDIN, the IC50 result is “Not Active” and the Ki result is given as “Not Active”.

On to NYSTATIN, for which the IC50 entry is on record as “Not Active” and the Ki entry is “Not Active”.

For another assay, the target named is Platelet-activating factor receptor (Homo sapiens, UniProt P25105). Type of assay: tissue-based. Also: in other assays of this panel Not Active means under 50% inhibition at 10 µM.
Platelet-activating factor receptor, sequence (P25105 whole entry): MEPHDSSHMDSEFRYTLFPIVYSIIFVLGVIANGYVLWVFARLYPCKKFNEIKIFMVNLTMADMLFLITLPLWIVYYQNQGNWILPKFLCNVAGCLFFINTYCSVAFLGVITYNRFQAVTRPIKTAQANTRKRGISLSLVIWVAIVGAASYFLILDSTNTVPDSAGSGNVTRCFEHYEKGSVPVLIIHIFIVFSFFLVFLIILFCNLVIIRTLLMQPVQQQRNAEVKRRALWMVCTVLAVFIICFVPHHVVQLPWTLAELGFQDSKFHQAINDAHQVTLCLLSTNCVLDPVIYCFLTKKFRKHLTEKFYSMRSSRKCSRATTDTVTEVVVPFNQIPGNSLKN
Settings: not given
Turning to `CC(C)c1cccc(C(C)C)c1O` [PROPOFOL], the IC50 result is given as “Not Active”.

In the case of `C[C@@H]1O[C@@H](O[C@@H]2C=C3CC[C@@H]4[C@H](CC[C@]5(C)[C@@H](c6ccc(=O)oc6)CC[C@]45O)[C@@]3(C)CC2)[C@H](O)[C@H](O)[C@H]1O` [PROSCILLARIDIN], the IC50 entry was “Not Active”.

For `Oc1cccc(O)c1O` [PYROGALLOL], the IC50 entry is recorded as “Not Active”.

In the case of AURANOFIN, the IC50 entry was “Not Active” and the Ki result is listed as “Not Active”.

Consider GADOPENTETATE DIMEGLUMINE, for which the IC50 result was “Not Active” and the Ki entry is reported as “Not Active”.

On to GENTAMICIN, for which the IC50 result is recorded as “Not Active” and the Ki entry was “Not Active”.

For the compound GRAMICIDIN, the IC50 result was “Not Active” and the Ki result is “Not Active”.

On to NYSTATIN, for which the IC50 result is given as “Not Active” and the Ki entry was “Not Active”.

Test system in the next assay: not listed separately
Put plainly: DRUGMATRIX: Sodium/nucleoside co-transporter radioligand binding (ligand: nitrobenzylthioinosine). It counts as cell membranes, Cavia porcellus, Dunkin-Hartley, Cerebral cortex, Membrane. As to conditions: Not Active = under 50% inhibition at 10 µM.
For `CC(C)c1cccc(C(C)C)c1O` [PROPOFOL], the IC50 result is “Not Active” and the Ki entry is on record as “Not Active”.

For the compound `C[C@@H]1O[C@@H](O[C@@H]2C=C3CC[C@@H]4[C@H](CC[C@]5(C)[C@@H](c6ccc(=O)oc6)CC[C@]45O)[C@@]3(C)CC2)[C@H](O)[C@H](O)[C@H]1O` [PROSCILLARIDIN], the IC50 result is recorded as “Not Active” and the Ki entry is listed as “Not Active”.

As to `Oc1cccc(O)c1O` [PYROGALLOL], the IC50 result is recorded as “Not Active” and the Ki result is “Not Active”.

In the case of AURANOFIN, the IC50 entry is “Not Active” and the Ki result was “Not Active”.

Consider GADOPENTETATE DIMEGLUMINE, for which the IC50 result is “Not Active” and the Ki result is “Not Active”.

Regarding GENTAMICIN, the IC50 result was “Not Active” and the Ki result is reported as “Not Active”.

Turning to GRAMICIDIN, the IC50 entry is given as “Not Active” and the Ki result was “Not Active”.

On to NYSTATIN, for which the IC50 result is given as “Not Active” and the Ki entry is reported as “Not Active”.

The values are drawn from ChEMBL document CHEMBL1909046, “DrugMatrix in vitro pharmacology data”.
